Data: article PMC11677527, “Predicting Pharmacokinetics of Active Constituents in Spatholobi caulis by Using Physiologically Based Pharmacokinetic Models” (Pharmaceuticals, 2024)
Where two headings read alike, the source gives them in different places.

Key:
[1] = Observed pharmacokinetics in rats after oral SPC (previous study); format: in vivo, rat; conditions: p.o. SPC
[2] = Verification pharmacokinetic experiment in rats, SPC 60 g crude drug/kg by gavage, UFLC-MS/MS, DAS 2.0; format: in vivo, rat
Procedure: To validate the accuracy of PBPK models in predicting the pharmacokinetics of SPC constituents at different oral doses, the pharmacokinetic behavior of these four constituents from SPC in rats were analyzed by UFLC-MS/MS. The parameters were calculated using Drug and Statistics Software version 2.0, and then these validated values (Val.) were used to check the accuracy of the Calc. values and evaluated by FE.
The pharmacokinetic fitting results of rats given 60 g crude drug/kg body weight of SPC by gavage were verified by experiments. The verification experiment was conducted according to our previous pharmacokinetic study. In brief, 1.5 mL suspension of SPC was given to rats by oral administration; 300 μL blood samples from orbital venous at 0.083, 0.25, 0.5, 0.75, 1.0, 1.5, 2, 3, 4, 6, 8, and 12 h were collected and pretreated with heparin sodium. After centrifugation, the plasma samples were obtained and further processed for subsequent detection by UFLC-MS/MS; the detailed analysis method is shown in Supplementary Data (Table S1 and Figure S1). The concentration-time curve of each compound was gained, and the pharmacokinetic parameters were calculated using DAS 2.0 software (DAS 2.0, Mathematical Pharmacology Professional Committee of China, Shanghai, China). The results of these four constituents were compared with the PBPK parameters predicted in rats at an oral dose of 60 g crude drug/kg body weight of SPC.
1. The instrument and analytical conditions of UFLC-MS/MS method
4 constituents (1. 3′-methoxydadizein; 2. 8-O-methylretusin; 3. Daidzin; and 4. […]
The internal standard (IS) carbamazepine with a purity of more than 99 % was purchased from Beijing JK-chemical technology Co. Ltd., (Beijing China). Heparin sodium was gained from Tianjin biochemical pharmaceutical Co. Ltd, (Tianjin, China).
Ammonium acetate of HPLC grade, methanol and acetonitrile of LC-MS grade were purchased from Sigma (LOT# BCBK6717V, sigma-aldrich, Co., MO, USA) and Fisher (Fisher Corp., Fair lawn, NJ, USA) respectively. The experimental ultrapure water was prepared by Millipore Milli-Q ultrapure water preparation apparatus (Millipore Sigma, […]
The detailed information of Shimadzu UFLC-MS/MS 8050 liquid mass system equipped with Nexera X2UFLC liquid chromatography system and 8050 triple quadrupole mass spectrometers with an electrospray ionization source were listed in our previous study. The supporting LabSolution workstation was used for data […]
The separation without superposition of analytes in plasma sample was achieved on a Kinetex® C18 chromatographic column (100mm×2.1mm i.d.; 2.6 μm, 100 Å; Phenomenex, Inc., Torrance, CA, USA) assembled with a Phenomenex p/n AJ0-9000 C18 protection column. The mobile phase was consisted of 0.5 mM ammonium acetate in water (A) and ACN (B). The gradient elution program was selected ultimately as […]
95 % B (18.7–22 min). Column and automatic sampler temperature were set as 30 °C and 4 °C respectively. The flow rate of mobile phase was 0.35 mL/min while sample injection volume was 4 μL.
Multiple reaction monitoring (MRM) of positive or negative modes were used as scanning modes for the analytes and IS. Other essential parameters were successively optimized as: Nebulizing gas flow, 3 L/min; Heating gas flow, 10 L/min; Drying gas flow, 10 L/min; Interface temperature, 300 °C; DL temperature, 250 °C; Interface and detector voltage were each set as 3.0 kV and 1.8 kV. The detection parameters such as retention time (RT), dwell time (DT), quadrupole 1 pre-rod bias (Q1), collision energy […]
Table S1 The retention time and ion equivalent parameters of 4 constituents in rat […]
Constituents Retention Precursor Precursor Product time Pre energy Pre time (min) ion species ion ion (msec) Bias (V) Bias

Caco-2 cell monolayer = tested on: Caco-2 cell monolayer; set-up: method as in PMID 36680806, PMID 26501241; conditions: Caco-2 cell monolayer model; cited from earlier work
[3] = set-up: method as in PMID 34303214; conditions: rats, p.o. SPC 30 g crude drug/kg; doses of 1-4: 0.062, 0.11, 0.71, 1.31 mg/kg; cited from earlier work
[4] = compartment model parameters, DAS 2.0, rats p.o. SPC 60 g crude drug/kg, Mean, 5 rats
[5] = statistical moment parameters, DAS 2.0, rats p.o. SPC 60 g crude drug/kg, Mean, 5 rats
[6] = statistical moment parameters, DAS 2.0, rats p.o. SPC 60 g crude drug/kg, Mean, 5 rats, in µg·h²/mL

O=c1c(-c2ccc(O)cc2)coc2cc(O[C@@H]3O[C@H](CO)[C@@H](O)[C@H](O)[C@H]3O)ccc12 [Constituent 3, daidzin]
time of slight secondary absorption peak [1]: 6 h
K10 [2, 4]: 0.981 h⁻¹
K12 [2, 4]: 0.402 h⁻¹
K21 [2, 4]: 0.15 h⁻¹
Ka [2, 4]: 16.131 h⁻¹
Tlag [2, 4]: 0 h
V1/F [2, 4]: 37.289 L/kg
t1/2Ka [2, 4]: 0.385 h
t1/2α [2, 4]: 0.868 h
concentration at 0.083 h ([2]; rat, plasma, oral, time 0.083 h, rats p.o. SPC 60 g crude drug/kg, doses of 1-4: 0.124, 0.22, 1.4, 2.62 mg/kg, 5 rats): 16.4 ng/mL
concentration at 0.25 h ([2]; rat, plasma, oral, time 0.25 h, rats p.o. SPC 60 g crude drug/kg, doses of 1-4: 0.124, 0.22, 1.4, 2.62 mg/kg, 5 rats): 28 ng/mL
concentration at 0.5 h ([2]; rat, plasma, oral, time 0.5 h, rats p.o. SPC 60 g crude drug/kg, doses of 1-4: 0.124, 0.22, 1.4, 2.62 mg/kg, 5 rats): 21 ng/mL
concentration at 0.75 h ([2]; rat, plasma, oral, time 0.75 h, rats p.o. SPC 60 g crude drug/kg, doses of 1-4: 0.124, 0.22, 1.4, 2.62 mg/kg, 5 rats): 18.4 ng/mL
concentration at 1 h ([2]; rat, plasma, oral, time 1 h, rats p.o. SPC 60 g crude drug/kg, doses of 1-4: 0.124, 0.22, 1.4, 2.62 mg/kg, 5 rats): 10.9 ng/mL
concentration at 1.5 h ([2]; rat, plasma, oral, time 1.5 h, rats p.o. SPC 60 g crude drug/kg, doses of 1-4: 0.124, 0.22, 1.4, 2.62 mg/kg, 5 rats): 5.55 ng/mL
concentration at 2 h ([2]; rat, plasma, oral, time 2 h, rats p.o. SPC 60 g crude drug/kg, doses of 1-4: 0.124, 0.22, 1.4, 2.62 mg/kg, 5 rats): 3.16 ng/mL
concentration at 3 h ([2]; rat, plasma, oral, time 3 h, rats p.o. SPC 60 g crude drug/kg, doses of 1-4: 0.124, 0.22, 1.4, 2.62 mg/kg, 5 rats): 2.62 ng/mL
concentration at 4 h ([2]; rat, plasma, oral, time 4 h, rats p.o. SPC 60 g crude drug/kg, doses of 1-4: 0.124, 0.22, 1.4, 2.62 mg/kg, 5 rats): 1.56 ng/mL
concentration at 6 h ([2]; rat, plasma, oral, time 6 h, rats p.o. SPC 60 g crude drug/kg, doses of 1-4: 0.124, 0.22, 1.4, 2.62 mg/kg, 5 rats): 1.39 ng/mL
concentration at 8 h ([2]; rat, plasma, oral, time 8 h, rats p.o. SPC 60 g crude drug/kg, doses of 1-4: 0.124, 0.22, 1.4, 2.62 mg/kg, 5 rats): 1.18 ng/mL
AUC(0-t) ([2]; rat, plasma, po, 1.4 mg/kg, compartment model parameters, DAS 2.0, rats p.o. SPC 60 g crude drug/kg, Mean, 5 rats, read-out: AUC(0-t)): 37.1 ng·h/mL
AUC(0-inf) ([2]; rat, plasma, po, 1.4 mg/kg, compartment model parameters, DAS 2.0, rats p.o. SPC 60 g crude drug/kg, Mean, 5 rats, read-out: AUC(0-∞)): 39.5 ng·h/mL
CL/F ([2]; rat, plasma, po, 1.4 mg/kg, compartment model parameters, DAS 2.0, rats p.o. SPC 60 g crude drug/kg, Mean, 5 rats, read-out: CL/F (converted)): 594 mL/min/kg
half-life ([2]; rat, plasma, po, 1.4 mg/kg, compartment model parameters, DAS 2.0, rats p.o. SPC 60 g crude drug/kg, Mean, 5 rats, read-out: t1/2β (converted)): 36.5 h
AUC(0-t) ([2]; rat, plasma, po, 1.4 mg/kg, statistical moment parameters, DAS 2.0, rats p.o. SPC 60 g crude drug/kg, Mean, 5 rats, read-out: AUC(0-t)): 35.5 ng·h/mL
AUC(0-inf) ([2]; rat, plasma, po, 1.4 mg/kg, statistical moment parameters, DAS 2.0, rats p.o. SPC 60 g crude drug/kg, Mean, 5 rats, read-out: AUC(0-∞)): 35.9 ng·h/mL
CL/F ([2]; rat, plasma, po, 1.4 mg/kg, statistical moment parameters, DAS 2.0, rats p.o. SPC 60 g crude drug/kg, Mean, 5 rats, read-out: CLz/F (converted)): 652 mL/min/kg
MRT last ([2]; rat, plasma, po, 1.4 mg/kg, statistical moment parameters, DAS 2.0, rats p.o. SPC 60 g crude drug/kg, Mean, 5 rats, read-out: MRT(0-t)): 1.83 h
MRT inf ([2]; rat, plasma, po, 1.4 mg/kg, statistical moment parameters, DAS 2.0, rats p.o. SPC 60 g crude drug/kg, Mean, 5 rats, read-out: MRT(0-∞)): 2.09 h
Tmax ([2]; rat, plasma, po, 1.4 mg/kg, statistical moment parameters, DAS 2.0, rats p.o. SPC 60 g crude drug/kg, Mean, 5 rats, read-out: Tmax): 0.25 h
Vd/F ([2]; rat, plasma, po, 1.4 mg/kg, statistical moment parameters, DAS 2.0, rats p.o. SPC 60 g crude drug/kg, Mean, 5 rats, read-out: Vz/F): 103 L/kg
half-life ([2]; rat, plasma, po, 1.4 mg/kg, statistical moment parameters, DAS 2.0, rats p.o. SPC 60 g crude drug/kg, Mean, 5 rats, read-out: t1/2z (converted)): 1.82 h
AUC(0-t) ([2]; rat, plasma, po, 2.62 mg/kg, rats, p.o. SPC 60 g crude drug/kg, doses of 1-4: 0.124, 0.22, 1.42, 2.62 mg/kg, n = 5, read-out: AUC0→t Val.): 35.5 ng·h/mL
AUC(0-inf) ([2]; rat, plasma, po, 2.62 mg/kg, rats, p.o. SPC 60 g crude drug/kg, doses of 1-4: 0.124, 0.22, 1.42, 2.62 mg/kg, n = 5, read-out: AUC0→∞ Val.): 35.9 ng·h/mL
Tmax ([2]; rat, plasma, po, rats, p.o. SPC 60 g crude drug/kg, doses of 1-4: 0.124, 0.22, 1.42, 2.62 mg/kg, n = 5, read-out: Tmax Val.): 0.25 h
Cmax [2, 5]: 27.183 ng/mL
Cz [2, 5]: 0.117 µg/L
VRT(0-t) [2, 5]: 4.934 h^2
VRT(0-∞) [2, 5]: 8.138 h^2
elimination rate constant [2, 5]: 0.429 h⁻¹
AUMC(0-t) [2, 6]: 65.207
AUMC(0-∞) [2, 6]: 75.236
Papp (Caco-2 cell monolayer): 4 ×10⁻⁶ cm/s
AUC0→t Obs. [3]: 28.4 ng·h/mL
AUC0→∞ Obs. [3]: 30.5 ng·h/mL
Cmax Obs. [3]: 15.1 ng/mL
Tmax Obs. [3]: 0.21 h
